From patent US11840686B2, “Modulation of prekallikrein (PKK) expression” (Ionis Pharmaceuticals, Inc., priority 2013, dated 2023)
Strand notation (5' to 3'): a small letter for the sugar, then the base; units joined by * are phosphorothioate-linked, units joined directly phosphodiester-linked; [ ] holds rarer units or linkages, { } end groups; capitals alone tell only the bases. e = 2'-O-(2-methoxyethyl) (MOE); [5mC] = 5-methylcytosine; d = 2'-deoxy (DNA)

Test system: human PKK mRNA
Assay: Antisense inhibition of human PKK mRNA in HepaRG cells, 5,000 nM (Example 2)
Assay type: cell-based
Details: HepaRG cells, 5,000 nM antisense oligonucleotide, human PKK mRNA; Table 18
How it was run: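 HepaRG cells, 20,000 per well, were electroporated with 5,000 nM MOE gapmer (phosphorothioate, 5-methylcytosine) and incubated about 24 hours. PKK mRNA was quantified by qRT-PCR with primer probe set RTS3454, normalized to RIBOGREEN total RNA, and expressed as percent inhibition versus untreated controls.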

Point of comparison: “548711 (DNA e[5mC]*eT*eG*dT*dA*d[5mC]*dT*dA*dG*dT*dT*dT*d[5mC]*e[5mC]*eT*eA; antisense) [compound 548711]”, “% inhibition” value 21%. Against it:
- 548722 (DNA eA*e[5mC]*eT*dG*dT*dA*d[5mC]*dT*dA*dG*dT*dT*dT*e[5mC]*e[5mC]*eT*eA; antisense) [compound 548722] — higher, 26%
- 548707 (DNA eA*e[5mC]*eT*dA*dG*dT*dT*dT*d[5mC]*d[5mC]*dT*dA*dT*eA*eA*e[5mC]; antisense) [compound 548707] — lower, 10%

Same assay, conditions: HepaRG cells, 5,000 nM antisense oligonucleotide; 5-10-5 gapmers; Table 16

Point of comparison: “546943 (e[5mC]*eA*eG*eT*eT*dT*dG*dG*d[5mC]*d[5mC]*dT*dT*dT*d[5mC]*d[5mC]*eA*eT*e[5mC]*eT*e[5mC]; antisense) [compound 546943]”, “% inhibition” value 54%. Against it:
- 546915 (eT*e[5mC]*eA*e[5mC]*eT*dG*dT*d[5mC]*d[5mC]*dT*dA*dT*dA*dA*d[5mC]*eT*eA*eT*eA*eT; antisense) [compound 546915] — lower, 39%

Same assay, conditions: HepaRG cells, 5,000 nM antisense oligonucleotide; 5-10-5 gapmers; Table 17

Point of comparison: “547080 (eG*eT*eG*e[5mC]*eA*dA*dG*dA*d[5mC]*d[5mC]*dT*dT*dG*d[5mC]*dT*eT*eG*e[5mC]*e[5mC]*eA; antisense) [compound 547080]”, “% inhibition” value 54%. Against it:
- 547754 (eG*eG*eG*eA*eT*dT*dG*dG*dT*dG*dG*dT*dT*dG*dG*eT*eG*eG*e[5mC]*eG; antisense) [compound 547754] — lower, 47%

Same assay, conditions: HepaRG cells, electroporation with 5,000 nM antisense oligonucleotide, approximately 24 hours, PKK mRNA by RT-PCR (RTS3454), relative to untreated control cells; Table 5 experiment

Point of comparison: “547283 (antisense eA*eG*eT*eT*eG*d[5mC]*dT*dT*dG*d[5mC]*dT*dT*dG*dA*dA*eT*eA*eA*eA*eA) [compound 547283]”, “% inhibition” value 67%. Against it:
- 546138 (eA*eA*eA*e[5mC]*eA*d[5mC]*dA*dA*dT*dT*dG*d[5mC]*dT*dT*d[5mC]*eT*eT*eG*eG*eA; antisense) [compound 546138] — higher, 69%

Same assay, conditions: HepaRG cells, electroporation with 5,000 nM antisense oligonucleotide, approximately 24 hours, PKK mRNA by RT-PCR (RTS3454), relative to untreated control cells; Table 6 experiment

Point of comparison: “547361 (eG*e[5mC]*eA*eA*e[5mC]*d[5mC]*dA*dA*dT*dT*dT*d[5mC]*dT*dG*dA*eA*eA*eG*eG*eG; antisense) [compound 547361]”, “% inhibition” value 46%. Against it:
- 547332 (antisense e[5mC]*eG*eA*eT*eG*dG*d[5mC]*dA*dA*dG*d[5mC]*dA*d[5mC]*dT*dT*eA*eT*eT*eT*eG) [compound 547332] — lower, 44%

Same assay, conditions: HepaRG cells, electroporation, 5,000 nM antisense oligonucleotide, approx. 24 hours, primer probe set RTS3454, relative to untreated control cells; Table 11

Point of comparison: “546375 (antisense eG*eA*e[5mC]*e[5mC]*e[5mC]*d[5mC]*d[5mC]*d[5mC]*dA*dG*dG*d[5mC]*dT*d[5mC]*dA*eG*eA*eA*eT*eT) [compound 546375]”, “% inhibition” value 48%. Against it:
- 546370 (antisense eA*e[5mC]*eT*eT*eG*dA*dA*d[5mC]*dT*d[5mC]*dA*dG*dG*dT*dT*eG*eT*eA*eA*eA) [compound 546370] — lower, 34%

Same assay, conditions: HepaRG cells, electroporation, 5,000 nM antisense oligonucleotide, approx. 24 hours, primer probe set RTS3454, relative to untreated control cells; Table 12

In the case of “547529 (antisense eA*e[5mC]*eA*e[5mC]*eA*d[5mC]*dA*dG*dT*d[5mC]*dA*dT*dG*dG*dA*eG*eA*eT*e[5mC]*eT) [compound 547529]”, the “% inhibition” value is reported as 49%.

Same assay, conditions: Table 7; HepaRG cells, electroporation with 5,000 nM antisense oligonucleotide, approx. 24 hours; PKK mRNA by RT-PCR (RTS3454), relative to untreated control cells

Point of comparison: “547381 (eT*eG*eT*eG*eA*d[5mC]*dT*d[5mC]*dG*dA*dT*dT*dT*dT*d[5mC]*e[5mC]*eA*eT*eA*e[5mC]; antisense) [compound 547381]”, “% inhibition” value 49%. Against it:
- 546228 (antisense eG*eT*eG*eA*e[5mC]*dT*d[5mC]*dG*dA*dT*dT*dT*dT*d[5mC]*d[5mC]*eA*eT*eA*e[5mC]*eA) [compound 546228] — higher, 60%
- 547396 (eT*e[5mC]*eA*eG*eG*dT*dA*dA*dA*dG*dT*dT*d[5mC]*dT*dT*eT*eT*eG*e[5mC]*eA; antisense) [compound 547396] — the same, 49%
- 546236 (eG*eT*eT*eA*eA*dA*dA*dG*dG*d[5mC]*dT*dA*dT*dA*dT*e[5mC]*e[5mC]*eA*eG*eA; antisense) [compound 546236] — higher, 50%

Same assay, conditions: Table 8; HepaRG cells, electroporation with 5,000 nM antisense oligonucleotide, approx. 24 hours; PKK mRNA by RT-PCR (RTS3454), relative to untreated control cells

Point of comparison: “547419 (e[5mC]*eT*eT*eA*eA*dG*dA*dA*dA*d[5mC]*dA*d[5mC]*dT*dT*dA*e[5mC]*eA*e[5mC]*eT*eT; antisense) [compound 547419]”, “% inhibition” value 51%. Against it:
- 546294 (antisense eG*eT*e[5mC]*e[5mC]*eT*dA*dT*dG*dA*dG*dT*dG*dA*d[5mC]*d[5mC]*e[5mC]*eT*e[5mC]*e[5mC]*eA) [compound 546294] — higher, 72%
- 546276 (eT*eG*eG*eA*eG*dA*dA*d[5mC]*d[5mC]*dA*dT*d[5mC]*d[5mC]*dA*dT*eA*eG*eA*eT*eA; antisense) [compound 546276] — higher, 74%
- 547441 (antisense eG*eG*eT*eG*eT*d[5mC]*d[5mC]*dT*dA*dT*dG*dA*dG*dT*dG*eA*e[5mC]*e[5mC]*e[5mC]*eT) [compound 547441] — higher, 62%

Same assay, conditions: Table 9 experiment; HepaRG cells, 20,000 cells per well, electroporation with 5,000 nM antisense oligonucleotide, approx. 24 hours; PKK mRNA by RT-PCR (RTS3454), relative to untreated control cells

Point of comparison: “546316 (antisense eG*e[5mC]*e[5mC]*eT*eG*dG*dA*dG*dT*dT*dT*dT*dA*dT*d[5mC]*eA*eA*eG*eG*e[5mC]) [compound 546316]”, “% inhibition” value 51%. Against it:
- 547461 (antisense eG*eT*eA*eA*eT*dT*d[5mC]*dA*dA*dA*dG*dG*dA*dG*d[5mC]*e[5mC]*eT*eG*eG*eA) [compound 547461] — lower, 49%
- 547478 (antisense e[5mC]*eA*eT*eT*e[5mC]*dT*dT*d[5mC]*dA*dT*dT*dT*dG*dT*dT*eA*e[5mC]*e[5mC]*eA*eA) [compound 547478] — higher, 85%
- 547450 (antisense e[5mC]*eT*e[5mC]*eT*eT*dT*dT*dA*dT*dT*dT*dG*dT*dG*dA*eG*eA*eA*eA*eG) [compound 547450] — higher, 71%
- 547477 (antisense eT*e[5mC]*eT*eT*e[5mC]*dA*dT*dT*dT*dG*dT*dT*dA*d[5mC]*d[5mC]*eA*eA*eA*eG*eG) [compound 547477] — higher, 74%
- 547467 (antisense eT*eG*eG*eT*eA*dT*dA*dA*dA*dT*dT*dG*dT*dG*d[5mC]*eT*eT*eG*eT*eG) [compound 547467] — higher, 80%

Same assay, conditions: Table 10 experiment; HepaRG cells, 20,000 cells per well, electroporation with 5,000 nM antisense oligonucleotide, approx. 24 hours; PKK mRNA by RT-PCR (RTS3454), relative to untreated control cells

Point of comparison: “547467 (antisense eT*eG*eG*eT*eA*dT*dA*dA*dA*dT*dT*dG*dT*dG*d[5mC]*eT*eT*eG*eT*eG) [compound 547467]”, “% inhibition” value 65%. Against it:
- 546316 (antisense eG*e[5mC]*e[5mC]*eT*eG*dG*dA*dG*dT*dT*dT*dT*dA*dT*d[5mC]*eA*eA*eG*eG*e[5mC]) [compound 546316] — lower, 60%
- 547461 (antisense eG*eT*eA*eA*eT*dT*d[5mC]*dA*dA*dA*dG*dG*dA*dG*d[5mC]*e[5mC]*eT*eG*eG*eA) [compound 547461] — lower, 55%
- 547478 (antisense e[5mC]*eA*eT*eT*e[5mC]*dT*dT*d[5mC]*dA*dT*dT*dT*dG*dT*dT*eA*e[5mC]*e[5mC]*eA*eA) [compound 547478] — lower, 55%
- 547450 (antisense e[5mC]*eT*e[5mC]*eT*eT*dT*dT*dA*dT*dT*dT*dG*dT*dG*dA*eG*eA*eA*eA*eG) [compound 547450] — higher, 67%
- 547477 (antisense eT*e[5mC]*eT*eT*e[5mC]*dA*dT*dT*dT*dG*dT*dT*dA*d[5mC]*d[5mC]*eA*eA*eA*eG*eG) [compound 547477] — higher, 68%

Same assay, conditions: Table 13; human PKK mRNA in HepaRG cells; 5-10-5 gapmers

Point of comparison: “547570 (eA*eA*eG*e[5mC]*e[5mC]*d[5mC]*dT*dG*dT*dT*dT*dG*dG*dT*dT*eT*eT*eT*eA*eG; antisense) [compound 547570]”, “% inhibition” value 18%. Against it:
- 547566 (eA*eA*eG*eA*eG*dT*dT*dG*dG*dG*dA*dT*dG*d[5mC]*dG*eA*e[5mC]*eT*e[5mC]*eT; antisense) [compound 547566] — higher, 76%
- 546765 (eG*eT*eG*eT*e[5mC]*d[5mC]*dA*dG*dA*dA*dT*dA*d[5mC]*dT*dG*e[5mC]*e[5mC]*e[5mC]*e[5mC]*eA; antisense) [compound 546765] — higher, 82%

Same assay, conditions: human PKK mRNA in HepaRG cells; 5-10-5 gapmers; Table 14

Point of comparison: “546883 (e[5mC]*eT*eA*eG*eT*dT*dT*d[5mC]*d[5mC]*dT*dA*dT*dA*dA*d[5mC]*eA*eG*eT*eA*eT; antisense) [compound 546883]”, “% inhibition” value 19%. Against it:
- 546878 (e[5mC]*e[5mC]*eT*eA*eT*dA*dA*d[5mC]*dA*dG*dT*dA*dT*d[5mC]*dA*e[5mC]*eT*eG*eT*e[5mC]; antisense) [compound 546878] — higher, 81%

Same assay, conditions: human PKK mRNA, HepaRG cells, 5,000 nM antisense oligonucleotide, Table 18

Point of comparison: “548768 (antisense eG*eT*eA*eT*d[5mC]*dA*d[5mC]*dT*dG*dT*d[5mC]*d[5mC]*dT*eA*eT*eA*eT) [compound 548768]”, “% inhibition” value 56%. Against it:
- 548781 (antisense eA*e[5mC]*e[5mC]*eT*dA*dT*dA*dA*d[5mC]*dT*dA*dT*dA*eA*e[5mC]*eA*eG) [compound 548781] — lower, 0%
- 548739 (DNA eG*eT*eA*e[5mC]*dT*dA*dG*dT*dT*dT*d[5mC]*d[5mC]*dT*eA*eT*eA*eA; antisense) [compound 548739] — lower, 0%
- 548763 (antisense e[5mC]*eT*e[5mC]*eT*dA*dA*d[5mC]*dA*dG*dT*dA*dT*d[5mC]*eA*e[5mC]*eT*eG) [compound 548763] — lower, 44%
- 548755 (antisense eT*eA*eT*e[5mC]*dA*d[5mC]*dT*dG*dT*dA*d[5mC]*dT*dA*dG*eT*eT*eT*e[5mC]) [compound 548755] — lower, 20%
- 548731 (DNA e[5mC]*eT*eG*eT*dA*d[5mC]*dT*dA*dG*dT*dT*dT*d[5mC]*d[5mC]*eT*eA*eT; antisense) [compound 548731] — lower, 49%
- 548777 (antisense eG*eT*eA*eA*d[5mC]*dA*dG*dT*dA*dT*d[5mC]*dA*d[5mC]*eT*eG*eT*eA) [compound 548777] — lower, 41%

Same assay, conditions: human PKK mRNA, HepaRG cells; 5-10-5 motif oligonucleotides targeting SEQ ID NO: 1 and 10

Point of comparison: “547649 (eA*e[5mC]*e[5mC]*eT*eA*dT*dA*dA*d[5mC]*dA*dG*dT*dA*dT*d[5mC]*eA*e[5mC]*eT*eG*eT; antisense) [compound 547649]”, “% inhibition” value 73%. Against it:
- 547645 (eA*eT*eA*eT*e[5mC]*dA*d[5mC]*dT*dG*dT*d[5mC]*d[5mC]*dT*dA*dT*eA*eA*e[5mC]*eT*eA; antisense) [compound 547645] — lower, 60%
